The source of these data is patent US20230167127A1, “COMPOUNDS AND THEIR USE IN THE TREATMENT OF BACTERIAL INFECTION” (Hoffmann-La Roche Inc., priority 2020, published 2023).

One assay relates to Escherichia coli ATCC 25922. The experiment in a line: 50% growth inhibitory concentration (IC50) determination, Iso-Sensitest broth dilution. Type of assay: cell-based. The conditions noted are these: Escherichia coli, ATCC25922, 16 h, strain Escherichia coli ATCC 25922; 10-point broth dilution, optical density at 600 nm over 16 h; read-out: Escherichia coli growth inhibition IC50. The method, boiled down: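 10-point twofold Iso-Sensitest broth dilution (e.g. 50 to 0.097 μM final) with DMSO stocks, incubated at 35±2° C. Growth followed by OD 600 nm every 20 min over 16 h; IC50 derived from growth inhibition during logarithmic phase.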
For `O=C1COc2ccc(N3CC([C@H]4C[C@@H](NC5Cc6cccc(Cl)c6C5)C4)OC3=O)nc2N1` (stereo partly drawn) [Example 16, 6-[5-[cis-3-[(4-chloro-2,3-dihydro-1H-inden-2-yl)amino]cyclobutyl]-2-oxo-1,3-oxazolidin-3-yl]-4H-pyrido[3,2-b][1,4]oxazin-3-one; formic acid], the concentration for half-maximal inhibition (IC50) is 840 nM.

In the case of `NC1(CNCCC2CN(c3ccc4c(n3)NC(=O)CO4)C(=O)O2)Cc2cccc(Cl)c2C1` (stereo not shown) [Example 240, 6-[5-[2-[(2-Amino-4-chloro-1,3-dihydroinden-2-yl)methylamino]ethyl]-2-oxo-1,3-oxazolidin-3-yl]-4H-pyrido[3,2-b][1,4]oxazin-3-one; formic acid], the IC50 was 278 nM.

In the case of `N#Cc1c(OCCN2CCOCC2)ccc2c1CC(CNCCC1CN(c3ccc4c(n3)NC(=O)CO4)C(=O)O1)C2` (stereo not shown) [Example 54, 5-(2-morpholin-4-ylethoxy)-2-[[2-[2-oxo-3-(3-oxo-4H-pyrido[3,2-b][1,4]oxazin-6-yl)-1,3-oxazolidin-5-yl]ethylamino]methyl]-2,3-dihydro-1H-indene-4-carbonitrile; formic acid], the IC50 was 357 nM.

For the molecule `CNC(=O)COc1cc(C)c2c(c1C)CC(CNCCC1CN(c3cnc4c(n3)NC(=O)CO4)C(=O)O1)C2` (stereo not shown) [Example 113, 2-[[4,7-dimethyl-2-[[2-[2-oxo-3-(3-oxo-4H-pyrazino[2,3-b][1,4]oxazin-6-yl)-1,3-oxazolidin-5-yl]ethylamino]methyl]-2,3-dihydro-1H-inden-5-yl]oxy]-N-methylacetamide], the concentration for half-maximal inhibition (IC50) was 323 nM.

As for `O=C1COc2ccc(N3CC(CCNC4Cc5ccc(Cl)cc5C4)OC3=O)nc2N1` (stereo not shown) [Example 11, 6-[5-[2-[(5-chloro-2,3-dihydro-1H-inden-2-yl)amino]ethyl]-2-oxo-1,3-oxazolidin-3-yl]-4H-pyrido[3,2-b][1,4]oxazin-3-one], the IC50 was determined as 2400 nM.

Regarding `NC1c2cccc(Cl)c2CC1CNCCc1cn(-c2cnc3c(n2)NC(=O)CO3)c(=O)o1` (racemic) [Example 359, 6-[5-[2-[(rac-1,2-trans-1-amino-4-chloro-2,3-dihydro-1H-inden-2-yl)methylamino]ethyl]-2-oxo-1,3-oxazol-3-yl]-4H-pyrazino[2,3-b][1,4]oxazin-3-one; formic acid], the concentration for half-maximal inhibition (IC50) was below 97.7 nM.

Regarding `Cc1ncc(F)c2c1CC(CN[C@H]1C[C@@H](C3CN(c4cnc5c(n4)NC(=O)CO5)C(=O)O3)C1)C2` (stereo partly shown) [Example 362], the IC50 is 157 nM.

As to `Cc1nc(N(C)C)cc2c1CC(CNCCC1CN(c3ccc4c(n3)NC(=O)CO4)C(=O)O1)C2` (stereo not shown) [Example 419, 6-[5-[2-[[3-(Dimethylamino)-1-methyl-6,7-dihydro-5H-cyclopenta[c]pyridin-6-yl]methylamino]ethyl]-2-oxo-1,3-oxazolidin-3-yl]-4H-pyrido[3,2-b][1,4]oxazin-3-one], the IC50 was 225 nM.

On to `CC(=O)N1CC(Oc2cc(F)c3c(c2)CC(CNCCC2CN(c4cnc5c(n4)NC(=O)CO5)C(=O)O2)C3)C1` (stereo not shown) [Example 354, 6-[5-[2-[[6-(1-acetylazetidin-3-yl)oxy-4-fluoro-2,3-dihydro-1H-inden-2-yl]methylamino]ethyl]-2-oxo-1,3-oxazolidin-3-yl]-4H-pyrazino[2,3-b][1,4]oxazin-3-one; formic acid], for which the IC50 amounted to 392 nM.

With `N#Cc1cccc2c1C(N)C(CNCCC1CN(c3ccc4c(n3)NC(=O)CO4)C(=O)O1)C2` (racemic) [Example 156, rac-2,3-trans-3-amino-2-[[2-[2-oxo-3-(3-oxo-4H-pyrido[3,2-b][1,4]oxazin-6-yl)-1,3-oxazolidin-5-yl]ethylamino]methyl]-2,3-dihydro-1H-indene-4-carbonitrile], the half-inhibitory concentration (IC50) is below 97.7 nM.

`NC1c2cc(OCC3(N)CC3)cc(Cl)c2CC1CNCCC1CN(c2cnc3c(n2)NC(=O)CO3)C(=O)O1` (racemic) [Example 282, 6-[2-Oxo-5-[2-[[rac-1,2-trans-1-amino-6-[(1-aminocyclopropyl)methoxy]-4-chloro-2,3-dihydro-1H-inden-2-yl]methylamino]ethyl]-1,3-oxazolidin-3-yl]-4H-pyrazino[2,3-b][1,4]oxazin-3-one; formic acid]: the IC50 stood at 374 nM.

In the case of `N#Cc1nc(OCC2(N)CC2)cc2c1CC(CNCCC1CN(c3ccc4c(n3)NC(=O)CO4)C(=O)O1)C2` (stereo not shown) [Example 125], the concentration for half-maximal inhibition (IC50) came out at 111 nM.

On to `N[C@@H]1c2cccc(Cl)c2C[C@H]1CN1CCC2(CC1)CN(c1cnc3c(n1)NC(=O)CO3)C(=O)O2` (racemic) [Example 259, 6-[2-Oxo-8-[[rac-1,2-trans-1-amino-4-chloro-2,3-dihydro-1H-inden-2-yl]methyl]-1-oxa-3,8-diazaspiro[4.5]decan-3-yl]-4H-pyrazino[2,3-b][1,4]oxazin-3-one; formic acid], for which the IC50 is below 97.7 nM.

Consider `Cc1ncc(F)c2c1CC(NCCCC1CN(c3ccc4c(n3)NC(=O)CO4)C(=O)O1)C2` (stereo not shown) [Example 78, 6-[5-[3-[(4-fluoro-1-methyl-6,7-dihydro-5H-cyclopenta[c]pyridin-6-yl)amino]propyl]-2-oxo-1,3-oxazolidin-3-yl]-4H-pyrido[3,2-b][1,4]oxazin-3-one], for which the IC50 stood at 155 nM.

In the case of `O=C1COc2ncc(N3CC(C4CCN(C5Cc6cccc(F)c6C5)CC4)OC3=O)nc2N1` (stereo not shown) [Example 350, 6-[5-[1-(4-fluoro-2,3-dihydro-1H-inden-2-yl)piperidin-4-yl]-2-oxo-1,3-oxazolidin-3-yl]-4H-pyrazino[2,3-b][1,4]oxazin-3-one], the half-inhibitory concentration (IC50) is below 97.7 nM.

In the case of `Cn1nnc(COc2cc(C#N)c3c(c2)CC(CNCCC2CN(c4cnc5c(n4)NC(=O)CO5)C(=O)O2)C3)n1` (stereo not shown) [Example 389, 6-[(2-methyltetrazol-5-yl)methoxy]-2-[[2-[2-oxo-3-(3-oxo-4H-pyrazino[2,3-b][1,4]oxazin-6-yl)-1,3-oxazolidin-5-yl]ethylamino]methyl]-2,3-dihydro-1H-indene-4-carbonitrile], the half-inhibitory concentration (IC50) is below 97.7 nM.

On to `CNC(=O)C(N)COc1cc(F)c2c(c1)CC(CNCCC1CN(c3ccc4c(n3)NC(=O)CO4)C(=O)O1)C2` (stereo not shown) [Example 255, 2-Amino-3-[[7-fluoro-2-[[2-[2-oxo-3-(3-oxo-4H-pyrido[3,2-b][1,4]oxazin-6-yl)-1,3-oxazolidin-5-yl]ethylamino]methyl]-2,3-dihydro-1H-inden-5-yl]oxy]-N-methylpropanamide; formic acid], for which the half-inhibitory concentration (IC50) was 180 nM.

As to `N#Cc1cccc2c1C(N)C(CNCCC1CN(c3ccc4c(n3)NC(=O)CS4)C(=O)O1)C2` (racemic) [Example 157, rac-2,3-trans-3-amino-2-[[2-[2-oxo-3-(3-oxo-4H-pyrido[3,2-b][1,4]thiazin-6-yl)-1,3-oxazolidin-5-yl]ethylamino]methyl]-2,3-dihydro-1H-indene-4-carbonitrile], the half-inhibitory concentration (IC50) is below 97.7 nM.

On to `COc1nc(C)c2c(c1C)CC(CNCCC1CN(c3ccc4c(n3)NC(=O)CO4)C(=O)O1)C2` (stereo not shown) [Example 106, 6-[5-[2-[(3-methoxy-1,4-dimethyl-6,7-dihydro-5H-cyclopenta[c]pyridin-6-yl)methylamino]ethyl]-2-oxo-1,3-oxazolidin-3-yl]-4H-pyrido[3,2-b][1,4]oxazin-3-one], for which the 50% inhibitory concentration (IC50) came to 259 nM.

On to `Cc1ncc(C#N)c2c1CC(NCCCc1cn(-c3cnc4c(n3)NC(=O)CO4)c(=O)o1)C2` (single isomer, unassigned; enantiomer a) [Example 321, 1-Methyl-6-[3-[2-oxo-3-(3-oxo-4H-pyrazino[2,3-b][1,4]oxazin-6-yl)-1,3-oxazol-5-yl]propylamino]-6,7-dihydro-5H-cyclopenta[c]pyridine-4-carbonitrile, Enantiomer A], for which the IC50 is below 97.7 nM.

Consider `Cc1nc(OCC2CC(=O)N(C)C2)c(C)c2c1CC(CNCCC1CN(c3ccc4c(n3)NC(=O)CO4)C(=O)O1)C2` (stereo not shown) [Example 103, 6-[5-[2-[[1,4-dimethyl-3-[(1-methyl-5-oxopyrrolidin-3-yl)methoxy]-6,7-dihydro-5H-cyclopenta[c]pyridin-6-yl]methylamino]ethyl]-2-oxo-1,3-oxazolidin-3-yl]-4H-pyrido[3,2-b][1,4]oxazin-3-one], for which the half-maximal inhibitory concentration (IC50) amounted to 1690 nM.

On to `CNC(=O)COc1cc(Cl)c2c(c1)C(N)C(CNCCC1CN(c3cnc4c(n3)NC(=O)CO4)C(=O)O1)C2` (racemic) [Example 399, 2-[[rac-2,3-trans-3-Amino-7-chloro-2-[[2-[2-oxo-3-(3-oxo-4H-pyrazino[2,3-b][1,4]oxazin-6-yl)-1,3-oxazolidin-5-yl]ethylamino]methyl]-2,3-dihydro-1H-inden-5-yl]oxy]-N-methylacetamide; formic acid], for which the IC50 was determined as 1120 nM.

Turning to `Cc1ncc(F)c2c1CC(C(C)NCC[C@H]1CN(c3cnc4c(n3)NC(=O)CO4)C(=O)O1)C2` (stereo partly drawn) [Example 330, 6-[(5S)-5-[2-[1-(4-fluoro-1-methyl-6,7-dihydro-5H-cyclopenta[c]pyridin-6-yl)ethylamino]ethyl]-2-oxo-1,3-oxazolidin-3-yl]-4H-pyrazino[2,3-b][1,4]oxazin-3-one; formic acid], the half-inhibitory concentration (IC50) was below 97.7 nM.

For `Cc1nc(Cl)c(F)c2c1CC(CNCCC1CN(c3cnc4c(n3)NC(=O)CO4)C(=O)O1)C2` (stereo not shown) [Example 398, 6-[5-[2-[(3-chloro-4-fluoro-1-methyl-6,7-dihydro-5H-cyclopenta[c]pyridin-6-yl)methylamino]ethyl]-2-oxo-1,3-oxazolidin-3-yl]-4H-pyrazino[2,3-b][1,4]oxazin-3-one], the 50% inhibitory concentration (IC50) is below 97.7 nM.

Staying with this assay, now noted: strain Escherichia coli ATCC 25922; 10-point broth dilution, optical density at 600 nm over 16 h; read-out: Escherichia coli growth inhibition IC50.
With `N#Cc1cccc2c1CC(NC1CCC3(CN(c4ccc5c(n4)NC(=O)CO5)C(=O)O3)C(N)C1)C2` (racemic) [Example 166, 2-[[rac-5,6-cis-5,8-trans-6-amino-2-oxo-3-(3-oxo-4H-pyrido[3,2-b][1,4]oxazin-6-yl)-1-oxa-3-azaspiro[4.5]decan-8-yl]amino]-2,3-dihydro-1H-indene-4-carbonitrile], the IC50 was 172 nM.

Broadly, the IC50 is the concentration that gives 50% inhibition.
